Structures can show the parent of a compound that is named as a salt.
Tested on: mouse partial sciatic nerve ligation model
Assay: Mouse partial sciatic nerve ligation model (Seltzer model), von Frey test
Assay type: in vivo
Settings: Day 7, vs physiological saline group
[1] = intravenous administration (tail vein), Examples 2, 4: 0.1 to 10 mg/kg, 13: 0.01 to 1 mg/kg, 18, 22: 0.1 and 1 mg/kg, 25, 27, 29, 31, 33, 66, 68, 70: 0.1 mg/kg, pregabalin 1 or 3 mg/kg
[2] = intraventricular administration, 10 μg/site, 15, 30 and 60 minutes after administration, p<0.05

Structure (SMILES)	analgesic action, total score in the von Frey test [1]	analgesic action, total score in the von Frey test [2]
CNC1CCN(C(=O)CCc2nccn2C)CC1 [Example 2, 3-(1-methyl-1H-imidazol-2-yl)-1-(4-(methylamino)piperidin-1-yl)propan-1-one hydrochloride]	statistically significant analgesic action	statistically significant analgesic action
CN(C)[C@@H]1CCCN(C(=O)CCc2nccn2CC(=O)O)C1.Cl [Example 31, 2-(2-(3-((R)-3-dimethylaminopiperidin-1-yl)-3-oxopropyl)-1H-imidazol-1-yl)acetic acid hydrochloride]	statistically significant analgesic action	–
CC(=O)NC1CCN(C(=O)CCc2nccn2C)CC1.Cl [Example 10, N-(1-(3-(1-methyl-1H-imidazol-2-yl)propanoyl)piperidin-4-yl)acetamide hydrochloride]	–	statistically significant analgesic action
CN(C)[C@H]1CCN(C(=O)CCc2nccn2CCC(=O)O)C1.Cl [Example 70, (S)-3-(2-(3-(3-(dimethylamino)pyrrolidin-1-yl)-3-oxopropyl)-1H-imidazol-1-yl)propanoic acid hydrochloride]	statistically significant analgesic action	–
Cl.O=C(O)Cn1ccnc1CCC(=O)N1CCC(N2CCOCC2)CC1 [Example 27, 2-(2-(3-(4-(morpholin-4-yl)piperidin-1-yl)-3-oxopropyl)-1H-imidazol-1-yl)acetic acid hydrochloride]	statistically significant analgesic action	–
CCN(C)C1CCN(C(=O)CCc2nccn2CC(=O)O)CC1.Cl [Example 18, 2-(2-(3-(4-(ethylmethylamino)piperidin-1-yl)-3-oxopropyl)-1H-imidazol-1-yl)acetic acid hydrochloride]	statistically significant analgesic action	–
CN(C)C1CCN(C(=O)CCc2nccn2CCO)CC1 [Example 12, 1-(4-(dimethylamino)piperidin-1-yl)-3-(1-(2-hydroxyethyl)-1H-imidazol-2-yl)propan-1-one hydrochloride]	–	statistically significant analgesic action
CN(C)C1CCN(C(=O)CCc2nccn2CCN)CC1 [Example 15, 3-(1-(2-aminoethyl)-1H-imidazol-2-yl)-1-(4-(dimethylamino)piperidin-1-yl)propan-1-one hydrochloride]	–	statistically significant analgesic action
CN(C)C1CCN(C(=O)CCc2nccn2CCC(=O)O)CC1 [Example 66, 3-(2-(3-(4-(dimethylamino)piperidin-1-yl)-3-oxopropyl)-1H-imidazol-1-yl)propanoic acid hydrochloride]	statistically significant analgesic action	–
CN1CCN(C2CCN(C(=O)CCc3nccn3CC(=O)O)CC2)CC1.Cl [Example 29, 2-(2-(3-(4-(1-methylpiperazin-4-yl)piperidin-1-yl)-3-oxopropyl)-1H-imidazol-1-yl)acetic acid hydrochloride]	statistically significant analgesic action	–
Cl.O=C(O)Cn1ccnc1CCC(=O)N1CCC(N2CCCCC2)CC1 [Example 25, 2-(2-(3-(4-(piperidin-1-yl)piperidin-1-yl)-3-oxopropyl)-1H-imidazol-1-yl)acetic acid hydrochloride]	statistically significant analgesic action	–
CN(C)[C@H]1CCCN(C(=O)CCc2nccn2CCC(=O)O)C1.Cl [Example 68, 3-(2-(3-((S)-3-dimethylaminopiperidin-1-yl)-3-oxopropyl)-1H-imidazol-1-yl)propanoic acid hydrochloride]	statistically significant analgesic action	–
CN(C)[C@H]1CCN(C(=O)CCc2nccn2CC(=O)O)C1.Cl [Example 33, (S)-2-(2-(3-(3-(dimethylamino)pyrrolidin-1-yl)-3-oxopropyl)-1H-imidazol-1-yl)acetic acid hydrochloride]	statistically significant analgesic action	–

From US9505740B2, “Cyclic amine derivative and pharmaceutical use thereof” (Toray Industries, Inc., priority 2013, dated 2016)
